Patent US9174951B2, “Glucose transporter inhibitors” (The Ohio State University Research Foundation, priority 2012, dated 2015)
“Also recorded” adds a separate entry of the source.

Legend:
[1] = test system: LNCaP cells; assay: [3H]2-DG glucose uptake assay in LNCaP cells; type: cell-based, human
Description: Screening of the focused compound library to identify lead glucose uptake inhibitors.
Glucose Uptake Assay. LNCaP cells were seeded in six-well plates (3×10^5 cells/well) for 24 h. […] The cells were lysed in […] lysis buffer (10 mM Tris-HCl pH 8.0, 0.1% SDS) and aliquots were taken for measurement of radioactivity using a scintillation counter (Beckman LS6500).

[2] = test system: normal human prostate epithelial cells (PrECs); assay: MTT cell viability assay, normal prostate epithelial cells; type: cell-based; conditions: 72 h, up to 10 μM
From the text: (§1) Cells and Cell Culture. LNCaP prostate cancer cells were obtained from the American Type Culture Collection (Manassas, Va.). Cells were maintained in 10% fetal bovine serum (FBS)-supplemented RPMI 1640 medium (Invitrogen, Carlsbad, Calif.). Normal human mammary epithelial cells (HMEC) and normal human prostate epithelial cells (PrEC) were obtained from Lonza (Walkersville, Md.) and were maintained in Mammary Epithelial Cell Growth Medium (MEGM) and Prostate Epithelial Cell Growth Medium (PrEGM) (Lonza, Walkersville, Md.), respectively.
(§2) Cell Viability Assay. Cell viability was determined using the 3-(4,5-dimethylthiazol-2-yl)-2,5-diphenyltetrazolium bromide (MTT) assay. Cancer cells were seeded at 5000 cells/well and normal cells were seeded at 8000 cells/well in 96-well plates and incubated in 10% FBS-supplemented medium for 24 h. Cells were then treated with individual agents for 72 h. Drug-containing medium was replaced with medium containing MTT (0.5 mg/mL), followed by incubation at 37° C. for 1 h. After removal of medium, the reduced MTT dye in each well was solubilized in 100 μL of DMSO and absorbance at 570 nm was measured.

[3] = test system: human mammary epithelial cells (HMECs); assay: MTT cell viability assay, normal mammary epithelial cells; type: cell-based; conditions: 72 h, up to 10 μM
From the text: as §1, §2

[4] = test system: PC-3 cells; assay: MTT cell viability assay, PC-3; type: cell-based; conditions: Homo sapiens, 72 h, 10% FBS
Description: as §2
(§3) Compound 30 was evaluated for antiproliferative activity in panels of different human cancer cells lines, including those of prostate, breast and pancreatic cancers. In all experiments, cells were treated with a range of concentrations of Compound 30 in the presence of 10% fetal bovine serum (FBS). Cell viability was then determined after 72 h of treatment using the 3-(4,5-dimethylthiazol-2-yl)-2,5-diphenyltetrazolium bromide (MTT) assay. […] It is noteworthy that despite this high antiproliferative potency, normal human prostate epithelial cells (PrECs) were resistant to the cytotoxic effect of Compound 30 even at 10 μM.

[5] = test system: MCF-7 cells; assay: MTT cell viability assay, MCF-7; type: cell-based; conditions: Homo sapiens, MCF7, 72 h, 10% FBS
Description: as §2, §3

[6] = test system: SKBR3 cells; assay: MTT cell viability assay, SKBR3; type: cell-based; conditions: Homo sapiens, SK-BR-3, 72 h, 10% FBS
Description: as §2, §3

[7] = test system: MDAMB-468 cells; assay: MTT cell viability assay, MDAMB-468; type: cell-based; conditions: Homo sapiens, MDA-MB-468, 72 h, 10% FBS
Description: as §2, §3

[8] = test system: Cal-51 cells; assay: MTT cell viability assay, Cal-51; type: cell-based; conditions: Homo sapiens, 72 h, 10% FBS
Description: as §2, §3

[9] = test system: AsPC1 cells; assay: MTT cell viability assay, AsPC1; type: cell-based; conditions: Homo sapiens, 72 h, 10% FBS
Description: as §2, §3

[10] = test system: BxPC3 cells; assay: MTT cell viability assay, BxPC3; type: cell-based; conditions: Homo sapiens, BXPC-3, 72 h, 10% FBS
Description: as §2, §3

[11] = test system: PANC1 cell line; assay: MTT cell viability assay, PANC1; type: cell-based; conditions: Homo sapiens, PANC-1, 72 h, 10% FBS, read-out: IC50, viability of PANC1 cells
Description: as §2, §3

[12] = test system: PANC1-GemR (gemcitabine-resistant subline); assay: MTT cell viability assay, PANC1-GemR; type: cell-based; conditions: Homo sapiens, 72 h, 10% FBS, read-out: IC50, viability of PANC1-GemR cells
Description: as §2, §3

[13] = test system: LNCaP cells; assay: Western blot analysis of energy restriction-associated markers in LNCaP cells; type: cell-based, human
Description: FIG. 4. (A) Dose-dependent suppressive effects of compounds 1, 2, 4, 5, 28, and 30 on the viability of LNCaP cells by MTT assays in 10% FBS-containing RPMI 1640 medium after 72 h of drug treatment. Column, mean; bars, SD (N=6). (B) Dose-dependent effect of compound 30 on the viability of normal prostate epithelial cells (PrECs) and human mammary epithelial cells (HMECs) after 72 h of treatment. Column, mean; bars, SD (N=6). (C) Western blot analysis of the dose-dependent effects of compound 30 on markers associated with apoptosis (PARP cleavage), β-TrCP-mediated protein degradation (β-TrCP, cyclin D1, Sp1, and AR), AMPK activation (p-AMPK, p-mTOR, and pp706SK), ER stress (GRP78 and GADD153), and epigenetic activation of KLF6.
Plasmid Construction, Transient Transfection and Immunoblotting. The full length GLUT1, GLUT4, and GLUT9 ORF cDNA clones were purchased from Addgene (Cambridge, Mass.) and GLUT3 ORF cDNA was purchased from Origene Technologies (Rockville, Md.). GLUT1, GLUT3, and GLUT9 were subcloned into the HindIII/SalI sites and GLUT4 was subcloned into the EcoRI/SalI sites of pEGFP-N2 expression vector (Clontech, Palo Alto, Calif.). Transfections were performed by electroporation using Nucleofector kit R of the Amaxa Nucleofector system (Lonza, Walkersville, Md.) according to the manufacturer's protocol. Immunoblotting was performed using cells lysates harvested with SDS lysis buffer (1% SDS, 50 mM Tris-HCl pH 8.0, 10 mM EDTA) containing 1× protease inhibitor cocktail (Sigma) and phosphatase inhibitor and were electrophoresed in 8˜12% SDS polyacrylamide gels and then transferred onto nitrocellulose membranes. After blotting in 5% nonfat dry milk, the membranes were incubated with primary antibodies at 1:1,000 dilution in TBS-Tween 20 overnight at 4° C., and then secondary antibodies conjugated with horseradish peroxidase at 1:5,000 dilution in TBS-Tween 20 for 1 hour at room temperature. Protein bands were visualized on X-ray film using an enhanced chemiluminescence system.

IC50 ([1]; Homo sapiens, LNCaP, Krebs-Ringer phosphate buffer, 37° C., 30 min of drug treatment, read-out: IC50 in blocking [3H]2-DG uptake into LNCaP cells): 2.5 µM
IC50 [4]: 1.5 to 1.7 µM
IC50 [5]: ~0.7 µM
IC50 [6]: 1.6 µM
IC50 [7]: 1.5 µM
IC50 [9]: ~5 µM
IC50 [10]: ~7.5 µM
IC50 [11]: ~2.5 µM
IC50 [12]: ~2.5 µM
Compound: CC(CN1C(=O)S/C(=C\c2ccc(O)c(C(F)(F)F)c2)C1=O)(CC(F)(F)F)CC(F)(F)F [Compound 30, 5-(4-Hydroxy-3-trifluoromethyl-benzylidene)-3-[4,4,4-trifluoro-2-methyl-2-(2,2,2-trifluoro-ethyl)-butyl]-thiazolidine-2,4-dione]
inhibition of [3H]2-DG uptake into LNCaP cells (screening, in words) ([1]; each at 5 μM, 30 min of exposure): substantially improved potency relative to compound 5
cytotoxic effect in PrECs [2]: resistant; also recorded: no appreciable cytoxicity; also recorded: no appreciable cytotoxicity
cytotoxic effect in HMECs [3]: resistant; also recorded: no appreciable cytoxicity; also recorded: no appreciable cytotoxicity
IC50 [8]: 1.7 µM
AMPK phosphorylation [13]: increases
PARP cleavage (apoptosis) [13]: dose-dependent increase
expression of ER stress markers GRP78 and GADD153 [13]: increased expression
expression of KLF6 [13]: increased the expression
expression of cyclin D1, Sp1 and AR [13]: downregulation
levels of p-mTOR and p-p70S6K [13]: concomitant decreases
β-TrCP expression [13]: dose dependently increased
